Here are results for 3 molecules from PubChem BioAssay (NCI).

“And” between values parts separate entries of the source, which are not always exact repeats. Identical values can stand only once.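 Each compound was tested at five concentrations against cells in 96-well plates for 48 hours. At the GI50, growth is halved. Definition used: TGI = concentration required for complete inhibition of growth.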

Some test systems named below: SR leukemia; HOP-62 NSCLC; SK-OV-3 ovarian; UACC-62 melanoma; UACC-257 melanoma; A549 NSCLC; A498 renal; DU-145 prostate; OVCAR-4 ovarian; NCI/ADR-RES ovarian.
Assay in all cases: NCI anticancer screen, dose series, 48 h

On to `CN(C)CCNC(=O)C(C)(C)Oc1ccc(C(=O)c2ccc(Cl)cc2)cc1Cl`, for which the GI50 is 3.48 µM in the test with SR leukemia; 2.81 µM with UACC-62 melanoma; 3.11 µM in the test on UACC-257 melanoma; 12.2 µM in the test with A549 NSCLC; 2.7 µM in the test with DU-145 prostate. The TGI in the test on SR leukemia was > 100 µM; with HOP-62 NSCLC, 23.9 µM; in the test with SK-OV-3 ovarian, 29.6 µM; in the test on UACC-62 melanoma, 4.29 µM; in the test on UACC-257 melanoma it was 7.79 µM and 4.84 µM; in the test on A549 NSCLC, 24.6 µM. Further, the TGI in the test on A498 renal was found to be 30.7 µM; with DU-145 prostate it was 26.1 µM; in the test with OVCAR-4 ovarian, 28 µM; in the test on NCI/ADR-RES ovarian, 26.1 µM.
In the case of `C[C@H](Nc1ncnc2nc[nH]c12)c1cc2ccc(F)cc2nc1-c1ccccn1`, the GI50 in the test on SR leukemia is 33.4 µM; with HOP-62 NSCLC, > 57.8 µM; in the test on SK-OV-3 ovarian, 48.3 µM; in the test with UACC-62 melanoma, 9.29 µM; in the test on UACC-257 melanoma it was > 100 µM; with A549 NSCLC it was > 100 µM. The GI50 is 1.02 µM in the test on A498 renal, > 100 µM in the test with DU-145 prostate, > 100 µM in the test with OVCAR-4 ovarian and > 100 µM in the test on NCI/ADR-RES ovarian. Further, the TGI in the test on SR leukemia, with HOP-62 NSCLC, with SK-OV-3 ovarian, with UACC-62 melanoma, in the test on UACC-257 melanoma and with A549 NSCLC was > 100 µM throughout. Further, the TGI is 10.7 µM with A498 renal, > 100 µM in the test on DU-145 prostate, > 100 µM in the test on OVCAR-4 ovarian and > 100 µM in the test with NCI/ADR-RES ovarian.
In the case of `CCCCCCCCN(CCCCCCCC)CCCCCCNc1cc(OC)cc2cccnc12`, the GI50 was 6.7 µM in the test on SR leukemia; 11.1 µM with HOP-62 NSCLC; 15.3 µM in the test with SK-OV-3 ovarian; 16.9 µM in the test on UACC-62 melanoma; 2.2 µM in the test with UACC-257 melanoma; 16.3 µM in the test on A549 NSCLC. In addition, the GI50 is 15.6 µM with A498 renal, 2.1 µM in the test with DU-145 prostate, 5.62 µM in the test on OVCAR-4 ovarian and 10.4 µM with NCI/ADR-RES ovarian. In addition, the TGI in the test with SR leukemia stood at 59.1 µM; in the test on HOP-62 NSCLC, 23.5 µM; with SK-OV-3 ovarian, 28.8 µM; in the test with UACC-62 melanoma, 31.4 µM; in the test with UACC-257 melanoma, 5.62 µM; with A549 NSCLC, 34.8 µM. The TGI in the test on A498 renal was 30.5 µM; in the test with DU-145 prostate, 4.52 µM; in the test on OVCAR-4 ovarian it was 19.7 µM; in the test with NCI/ADR-RES ovarian, 23.4 µM.
